ChEMBL document CHEMBL4715839, “Structure-activity relationships for binding of 4-substituted triazole-phenols to macrophage migration inhibitory factor (MIF)” (Eur J Med Chem, 2020)

What was measured:
[1] = Solubility of compound in pH 7.4 PBS buffer by shake-flask method; type: physicochemical
[2] = Solubility of compound at >=50 uM; type: physicochemical
[3] = target: T1, Macrophage migration inhibitory factor (Homo sapiens, UniProt P14174); experiment: (§1) Inhibition of C-terminal His-tagged recombinant human MIF tautomerase activity expressed in Escherichia coli BL21 using 4-hydroxyphenyl pyruvic acid as substrate preincubated for 15 mins followed by substrate addition and measured for 10 mins in presence of 0.5 mM EDTA by UV absorbance based Cheng-Prusoff equation analysis
T1 sequence (P14174 whole entry): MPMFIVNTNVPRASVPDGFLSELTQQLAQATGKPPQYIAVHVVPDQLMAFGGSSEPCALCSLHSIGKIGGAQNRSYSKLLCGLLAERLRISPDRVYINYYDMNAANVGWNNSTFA

[4] = target: T1, Macrophage migration inhibitory factor; experiment: Inhibition of C-terminal His-tagged recombinant human MIF tautomerase activity expressed in Escherichia coli BL21 using 4-hydroxyphenyl pyruvic acid as substrate preincubated for 15 mins followed by substrate addition and measured for 10 mins in presence of 0.5 mM EDTA by UV absorbance analysis
[5] = target: T1, Macrophage migration inhibitory factor; experiment: Binding affinity to RED-Tris-NTA-labelled C-terminal His-tagged recombinant human MIF tautomerase activity expressed in Escherichia coli BL21 by microscale thermophoresis assay
[6] = target: T1, Macrophage migration inhibitory factor; experiment: as §1, with “absence” for “presence”, “of” for “of 0.5 mM”
[7] = target: T1, Macrophage migration inhibitory factor; experiment: Inhibition of recombinant human MIF tautomerase activity expressed in Escherichia coli using 4-hydroxyphenyl pyruvic acid as substrate preincubated for 30 mins followed by substrate addition and measured for 175 secs

Row | SMILES | Ki [3] | IC50 [4] | further results
1 | Oc1ccc(-n2cc(-c3ccc4ccccc4n3)nn2)cc1 | – | – | solubility thermodynamic [1]: 2.2 µg/mL
2 | O=C(Cc1cc2ccccc2[nH]1)NCc1cn(-c2ccc(O)cc2)nn1 | 43 µM | 62 µM | –
3 | Oc1ccc(-n2cc(-c3ccccn3)nn2)cc1 | 5 µM | 7.2 µM | Ki [6]: 2.9 µM; Ki [7]: 8.8 µM
4 | COC(=O)CCCc1cn(-c2ccc(O)cc2)nn1 | 23 µM | 33 µM | –
5 | Oc1ccc(-n2cc(C3CCCCC3)nn2)cc1 | 17 µM | 26 µM | –
6 | O=C(NCc1cn(-c2ccc(O)cc2)nn1)c1ccccc1 | 23 µM | 33 µM | –
7 | O=C(CCc1cn(-c2ccc(O)cc2)nn1)Nc1ccccc1 | 32 µM | 47 µM | –
8 | Cc1ccc(C(=O)NCc2cn(-c3ccc(O)cc3)nn2)s1 | 19 µM | 28 µM | –

More lines, in order of falling Ki [3], values ahead:

Row | Ki [3] | IC50 [4] | SMILES | further results
9 | 36 µM | 53 µM | O=C(NCc1cn(-c2ccc(O)cc2)nn1)c1ccc(F)cc1 | –
10 | 30 µM | 43 µM | O=C(NCc1cn(-c2ccc(O)cc2)nn1)c1ccc[nH]1 | –
11 | 28 µM | 41 µM | O=C(NCc1cn(-c2ccc(O)cc2)nn1)c1cccs1 | –
12 | 26 µM | 38 µM | O=C(NCc1cn(-c2ccc(O)cc2)nn1)c1ccc(Br)o1 | –
13 | 6.9 µM | 10 µM | CCCCCc1cn(-c2ccc(O)cc2)nn1 | –
14 | 6.9 µM | 10 µM | O=C(NCc1cn(-c2ccc(O)cc2)nn1)c1cc2ccccc2[nH]1 | –
15 | 6.5 µM | 9.5 µM | C#CCCCCc1cn(-c2ccc(O)cc2)nn1 | –
16 | 3.3 µM | 4.8 µM | O=C(NCc1cn(-c2ccc(O)c(F)c2)nn1)c1cc2ccccc2[nH]1 | solubility thermodynamic [1]: 41.4 µM; Kd [5]: 3.63 µM
17 | 0.96 µM | – | O=C(NCc1cn(-c2ccc(O)c(F)c2)nn1)c1cc2cc(Cl)ccc2[nH]1 | solubility [2]: Insoluble; solubility thermodynamic [1]: 28 µM
